Test results taken from ChEMBL document CHEMBL1201862, “PubChem BioAssay data set” (2004).
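All cell lines were grown in 96-well plates and treated with compound for 48 hours. GI50: concentration for 50% inhibition of growth.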 Active and inactive are the calls of the source. Cut-off read from the data, not from the text of the source: active = GI50 up to about 1.1 µM and inactive = higher.

Tests used:
Experiment in all cases: DTP human tumour cell line panel, 48 h
CCRF-CEM = tested on: CCRF-CEM
UO-31 = tested on: UO-31
KM-20L2 = tested on: KM-20L2
A549 = tested on: A549
HCC 2998 = tested on: HCC 2998
U-251 = tested on: U-251
MOLT-4 = tested on: MOLT-4
K562 = tested on: K562
M14 = tested on: M14
SW-620 = tested on: SW-620
LXFL 529 = tested on: LXFL 529
SNB-78 = tested on: SNB-78
SK-MEL-28 = tested on: SK-MEL-28
ACHN = tested on: ACHN
DMS-114 = tested on: DMS-114
HOP-18 = tested on: HOP-18
EKVX = tested on: EKVX
NCI-H522 = tested on: NCI-H522
SF-268 = tested on: SF-268
DLD-1 = tested on: DLD-1
SF-539 = tested on: SF-539
OVCAR-8 = tested on: OVCAR-8
SNB-19 = tested on: SNB-19
TK-10 = tested on: TK-10
HCT-15 = tested on: HCT-15
KM12 = tested on: KM12
RPMI-8226 = tested on: RPMI-8226
SF-295 = tested on: SF-295
OVCAR-4 = tested on: OVCAR-4
SK-MEL-5 = tested on: SK-MEL-5
XF498 = tested on: XF498
IGROV-1 = tested on: IGROV-1
HT-29 = tested on: HT-29
M19-MEL = tested on: M19-MEL
RXF 631 = tested on: RXF 631
OVCAR-5 = tested on: OVCAR-5
LOX IMVI = tested on: LOX IMVI
NCI-H460 = tested on: NCI-H460
SR = tested on: SR
HOP-62 = tested on: HOP-62
DMS-273 = tested on: DMS-273
SN12C = tested on: SN12C
OVCAR-3 = tested on: OVCAR-3
NCI-H23 = tested on: NCI-H23
SK-OV-3 = tested on: SK-OV-3
HCT-116 = tested on: HCT-116
UACC-62 = tested on: UACC-62
SNB-75 = tested on: SNB-75
HL-60 = tested on: HL-60
A498 = tested on: A498
HOP-92 = tested on: HOP-92
CAKI-1 = tested on: CAKI-1
786-0 = tested on: 786-0
UACC-257 = tested on: UACC-257
SK-MEL-2 = tested on: SK-MEL-2
RXF 393 = tested on: RXF 393
COLO 205 = tested on: COLO 205
NCI-H226 = tested on: NCI-H226
Malme-3M = tested on: Malme-3M

COc1ccc2c(c1)C(=O)N1CCOC1C2C(=O)O (stereo not given)
GI50 (CCRF-CEM): > 100 µM (inactive) | GI50 (UO-31): > 100 µM (inactive) | GI50 (KM-20L2): > 100 µM (inactive) | GI50 (A549): > 100 µM (inactive) | GI50 (HCC 2998): > 100 µM (inactive) | GI50 (U-251): > 100 µM (inactive) | GI50 (MOLT-4): > 100 µM (inactive) | GI50 (K562): > 100 µM (inactive) | GI50 (M14): > 100 µM (inactive) | GI50 (SW-620): > 100 µM (inactive) | GI50 (LXFL 529): > 100 µM (inactive) | GI50 (SNB-78): > 100 µM (inactive) | GI50 (SK-MEL-28): > 100 µM (inactive) | GI50 (ACHN): > 100 µM (inactive) | GI50 (DMS-114): > 100 µM (inactive) | GI50 (HOP-18): > 100 µM (inactive) | GI50 (EKVX): > 100 µM (inactive) | GI50 (NCI-H522): > 100 µM (inactive) | GI50 (SF-268): > 100 µM (inactive) | GI50 (DLD-1): > 100 µM (inactive) | GI50 (SF-539): > 100 µM (inactive) | GI50 (OVCAR-8): > 100 µM (inactive) | GI50 (SNB-19): > 100 µM (inactive) | GI50 (TK-10): > 100 µM (inactive) | GI50 (HCT-15): > 100 µM | GI50 (KM12): > 100 µM (inactive) | GI50 (RPMI-8226): > 100 µM (inactive) | GI50 (SF-295): 4.08 µM (inactive) | GI50 (OVCAR-4): > 100 µM (inactive) | GI50 (SK-MEL-5): > 100 µM (inactive) | GI50 (XF498): > 100 µM (inactive) | GI50 (IGROV-1): > 100 µM (inactive) | GI50 (HT-29): > 100 µM (inactive) | GI50 (M19-MEL): > 100 µM (inactive) | GI50 (RXF 631): > 100 µM (inactive) | GI50 (OVCAR-5): > 100 µM (inactive) | GI50 (LOX IMVI): > 100 µM (inactive) | GI50 (NCI-H460): > 100 µM (inactive) | GI50 (SR): > 100 µM (inactive) | GI50 (HOP-62): > 100 µM (inactive) | GI50 (DMS-273): 0.693 µM (active) | GI50 (SN12C): > 100 µM (inactive) | GI50 (OVCAR-3): > 100 µM (inactive) | GI50 (NCI-H23): > 100 µM (inactive) | GI50 (SK-OV-3): > 100 µM (inactive) | GI50 (HCT-116): > 100 µM (inactive) | GI50 (UACC-62): > 100 µM (inactive) | GI50 (SNB-75): > 100 µM (inactive) | GI50 (HL-60): > 100 µM (inactive) | GI50 (A498): > 100 µM (inactive) | GI50 (HOP-92): > 100 µM (inactive) | GI50 (CAKI-1): > 100 µM (inactive) | GI50 (786-0): > 100 µM (inactive) | GI50 (UACC-257): > 100 µM (inactive)

COc1cccc(C(=O)N2CCc3ccccc32)c1OC
GI50 (CCRF-CEM): 42.2 µM (inactive) | GI50 (UO-31): > 100 µM (inactive) | GI50 (KM-20L2): 80.2 µM (inactive) | GI50 (A549): > 100 µM (inactive) | GI50 (SK-MEL-2): > 100 µM (inactive) | GI50 (HCC 2998): 85.1 µM (inactive) | GI50 (U-251): 52.7 µM (inactive) | GI50 (MOLT-4): 23 µM (inactive) | GI50 (K562): 34.7 µM (inactive) | GI50 (M14): 43.6 µM (inactive) | GI50 (RXF 393): 63.1 µM (inactive) | GI50 (SW-620): 41.9 µM (inactive) | GI50 (LXFL 529): 74 µM (inactive) | GI50 (SNB-78): > 100 µM (inactive) | GI50 (SK-MEL-28): > 100 µM (inactive) | GI50 (ACHN): 64.9 µM (inactive) | GI50 (COLO 205): 58.7 µM (inactive) | GI50 (DMS-114): 43.8 µM (inactive) | GI50 (HOP-18): 34.1 µM (inactive) | GI50 (EKVX): > 100 µM (inactive) | GI50 (NCI-H522): 47.6 µM (inactive) | GI50 (SF-539): > 100 µM (inactive) | GI50 (OVCAR-8): 78.3 µM (inactive) | GI50 (SNB-19): 74.8 µM (inactive) | GI50 (TK-10): 57.8 µM (inactive) | GI50 (HCT-15): 21 µM | GI50 (KM12): 34.7 µM (inactive) | GI50 (NCI-H226): 90.6 µM (inactive) | GI50 (RPMI-8226): 35.3 µM (inactive) | GI50 (SF-295): 38.5 µM (inactive) | GI50 (OVCAR-4): 48.9 µM (inactive) | GI50 (SK-MEL-5): 69.8 µM (inactive) | GI50 (XF498): 40.3 µM (inactive) | GI50 (IGROV-1): > 100 µM (inactive) | GI50 (HT-29): 38.9 µM (inactive) | GI50 (M19-MEL): > 100 µM (inactive) | GI50 (RXF 631): 58.5 µM (inactive) | GI50 (OVCAR-5): > 100 µM (inactive) | GI50 (LOX IMVI): 87.7 µM (inactive) | GI50 (Malme-3M): 60.4 µM (inactive) | GI50 (NCI-H460): 81.8 µM (inactive) | GI50 (SR): 29.4 µM (inactive) | GI50 (HOP-62): > 100 µM (inactive) | GI50 (DMS-273): 41 µM (inactive) | GI50 (SN12C): > 100 µM (inactive) | GI50 (OVCAR-3): 38.5 µM (inactive) | GI50 (NCI-H23): 34.4 µM (inactive) | GI50 (SK-OV-3): 48.8 µM (inactive) | GI50 (HCT-116): 56.5 µM (inactive) | GI50 (UACC-62): 47 µM (inactive) | GI50 (SNB-75): 68.4 µM (inactive) | GI50 (HL-60): 27.8 µM (inactive) | GI50 (HOP-92): 53.5 µM (inactive) | GI50 (CAKI-1): 38.5 µM (inactive) | GI50 (786-0): > 100 µM (inactive) | GI50 (UACC-257): 53.1 µM (inactive)
